Measured values: PubChem BioAssay AID1963834 (Molecular Pharmacology Branch, DTP, NCI, 2024)

System: 873145-292-R-J1-PDC complex spheroid viability
Assay: Anticancer human tumor 873145-292-R-J1-PDC patient-derived renal clear cell carcinoma cell line growth inhibition [POLQ]
Settings: for IC50: curve of first compound; for viability, T/C: stronger effect = lower value
In short: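 Three-cell-type spheroids modelling solid tumor plus stroma served as the readout system; POL inhibitors were tested individually and in combination, concentration ranges set by clinical Cmax where known.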

[1] = second compound 0.0316 µM, first compound 0.00316 µM
[2] = second compound 0.0316 µM, first compound 0.01 µM
[3] = second compound 0.0316 µM, first compound 0.0316 µM
[4] = second compound 0.0316 µM, first compound 0.1 µM
[5] = second compound 0.0316 µM, first compound 0.316 µM
[6] = second compound 0.0316 µM, first compound 1 µM
[7] = second compound 0.1 µM, first compound 0.00316 µM
[8] = second compound 0.1 µM, first compound 0.01 µM
[9] = second compound 0.1 µM, first compound 0.0316 µM
[10] = second compound 0.1 µM, first compound 0.1 µM
[11] = second compound 0.1 µM, first compound 0.316 µM
[12] = second compound 0.1 µM, first compound 1 µM
[13] = second compound 0.316 µM, first compound 0.00316 µM
[14] = second compound 0.316 µM, first compound 0.01 µM
[15] = second compound 0.316 µM, first compound 0.0316 µM
[16] = second compound 0.316 µM, first compound 0.1 µM
[17] = second compound 0.316 µM, first compound 0.316 µM
[18] = second compound 0.316 µM, first compound 1 µM
[19] = second compound 1 µM, first compound 0.00316 µM
[20] = second compound 1 µM, first compound 0.01 µM
[21] = second compound 1 µM, first compound 0.0316 µM
[22] = second compound 1 µM, first compound 0.1 µM
[23] = second compound 1 µM, first compound 0.316 µM
[24] = second compound 1 µM, first compound 1 µM
[25] = second compound 3.16 µM, first compound 0.00316 µM
[26] = second compound 3.16 µM, first compound 0.01 µM
[27] = second compound 3.16 µM, first compound 0.0316 µM
[28] = second compound 3.16 µM, first compound 0.1 µM
[29] = second compound 3.16 µM, first compound 0.316 µM
[30] = second compound 3.16 µM, first compound 1 µM
[31] = second compound 10 µM, first compound 0.00316 µM
[32] = second compound 10 µM, first compound 0.01 µM
[33] = second compound 10 µM, first compound 0.0316 µM
[34] = second compound 10 µM, first compound 0.1 µM
[35] = second compound 10 µM, first compound 0.316 µM
[36] = second compound 10 µM, first compound 1 µM
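Also: spheroids exposed to compounds for 7 days before viability readout.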
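For viability, T/C in this document: luminescence signal used as surrogate for viable cell content; 100% = DMSO vehicle control viability.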

`C=CCn1c(=O)c2cnc(Nc3ccc(N4CCN(C)CC4)cc3)nc2n1-c1cccc(C(C)(C)O)n1` + Cc1cccc(N(C)C(=O)C2C(O)CCN2c2nc(C)cc(C(F)(F)F)c2C#N)c1 gave an IC50 (second compound 0.0316 µM) greater than 1 µM, an IC50 (second compound 0.1 µM) greater than 1 µM and an IC50 (second compound 0.316 µM) greater than 1 µM. For the same compound, the IC50 (second compound 1 µM) was greater than 1 µM, the IC50 (second compound 3.16 µM) was greater than 1 µM and the IC50 (second compound 10 µM) was greater than 1 µM. The viability, T/C [1] was 93.1%, the viability, T/C [2] was 104% and the viability, T/C [3] was 102%. It also gave a viability, T/C [4] of 92%, a viability, T/C [5] of 83.3% and a viability, T/C [6] of 77.8%. It also gave a viability, T/C [7] of 101%, a viability, T/C [8] of 97.3% and a viability, T/C [9] of 96%. For the same compound, the viability, T/C [10] was 87.1%, the viability, T/C [11] was 88.3% and the viability, T/C [12] was 76.7%. The viability, T/C [13] was 101%, the viability, T/C [14] was 110% and the viability, T/C [15] was 82.8%. For the same compound, the viability, T/C [16] was 94.6%, the viability, T/C [17] was 81.4% and the viability, T/C [18] was 74.9%. It also gave a viability, T/C [19] of 89.8%, a viability, T/C [20] of 94.4% and a viability, T/C [21] of 101%. For the same compound, the viability, T/C [22] was 85.8%, the viability, T/C [23] was 87.5% and the viability, T/C [24] was 75.5%. It also gave a viability, T/C [25] of 97.7%, a viability, T/C [26] of 120% and a viability, T/C [27] of 112%. It also gave a viability, T/C [28] of 91.3%, a viability, T/C [29] of 86.9% and a viability, T/C [30] of 81.7%. For the same compound, the viability, T/C [31] was 93.2%, the viability, T/C [32] was 97.2% and the viability, T/C [33] was 102%. The viability, T/C [34] was 85.1%, the viability, T/C [35] was 81.4% and the viability, T/C [36] was 75.3%.

`CCCS(=O)(=O)Nc1ccc(F)c(C(=O)c2c[nH]c3ncc(-c4ccc(Cl)cc4)cc23)c1F` + Cc1cccc(N(C)C(=O)C2C(O)CCN2c2nc(C)cc(C(F)(F)F)c2C#N)c1 gave an IC50 (second compound 0.0316 µM) greater than 10 µM, an IC50 (second compound 0.1 µM) greater than 10 µM and an IC50 (second compound 0.316 µM) greater than 10 µM. It also gave an IC50 (second compound 1 µM) greater than 10 µM, an IC50 (second compound 3.16 µM) greater than 10 µM and an IC50 (second compound 10 µM) greater than 10 µM. For the same compound, the viability, T/C [3] was 115%, the viability, T/C [4] was 110% and the viability, T/C [5] was 113%. The viability, T/C [6] was 118%, the viability, T/C (second compound 0.0316 µM, first compound 3.16 µM) was 89.9% and the viability, T/C (second compound 0.0316 µM, first compound 10 µM) was 79.3%. It also gave a viability, T/C [9] of 105%, a viability, T/C [10] of 106% and a viability, T/C [11] of 90.8%. The viability, T/C [12] was 121%, the viability, T/C (second compound 0.1 µM, first compound 3.16 µM) was 105% and the viability, T/C (second compound 0.1 µM, first compound 10 µM) was 67.6%. It also gave a viability, T/C [15] of 117%, a viability, T/C [16] of 125% and a viability, T/C [17] of 94.4%. The viability, T/C [18] was 112%, the viability, T/C (second compound 0.316 µM, first compound 3.16 µM) was 97.4% and the viability, T/C (second compound 0.316 µM, first compound 10 µM) was 80.6%. For the same compound, the viability, T/C [21] was 98.6%, the viability, T/C [22] was 102% and the viability, T/C [23] was 103%. It also gave a viability, T/C [24] of 106%, a viability, T/C (second compound 1 µM, first compound 3.16 µM) of 105% and a viability, T/C (second compound 1 µM, first compound 10 µM) of 68.6%. The viability, T/C [27] was 101%, the viability, T/C [28] was 111% and the viability, T/C [29] was 109%. It also gave a viability, T/C [30] of 107%, a viability, T/C (second compound 3.16 µM, first compound 3.16 µM) of 105% and a viability, T/C (second compound 3.16 µM, first compound 10 µM) of 83.8%. For the same compound, the viability, T/C [33] was 103%, the viability, T/C [34] was 101% and the viability, T/C [35] was 96.1%. The viability, T/C [36] was 109%, the viability, T/C (second compound 10 µM, first compound 3.16 µM) was 96.8% and the viability, T/C (second compound 10 µM, first compound 10 µM) was 81.1%.

`CC[C@@]1(O)C(=O)OCc2c1cc1n(c2=O)Cc2cc3c(CN(C)C)c(O)ccc3nc2-1` + Cc1cccc(N(C)C(=O)C2C(O)CCN2c2nc(C)cc(C(F)(F)F)c2C#N)c1 was tested, and the IC50 (second compound 0.0316 µM) was greater than 0.1 µM, the IC50 (second compound 0.1 µM) was greater than 0.1 µM and the IC50 (second compound 0.316 µM) was 0.0922 µM. The IC50 (second compound 1 µM) was greater than 0.1 µM, the IC50 (second compound 3.16 µM) was greater than 0.1 µM and the IC50 (second compound 10 µM) was greater than 0.1 µM. The viability, T/C (second compound 0.0316 µM, first compound 0.000316 µM) was 105%, the viability, T/C (second compound 0.0316 µM, first compound 0.001 µM) was 95.2% and the viability, T/C [1] was 89.6%. For the same compound, the viability, T/C [2] was 104%, the viability, T/C [3] was 73.7% and the viability, T/C [4] was 52.5%. The viability, T/C (second compound 0.1 µM, first compound 0.000316 µM) was 93.3%, the viability, T/C (second compound 0.1 µM, first compound 0.001 µM) was 101% and the viability, T/C [7] was 97.8%. The viability, T/C [8] was 101%, the viability, T/C [9] was 74.4% and the viability, T/C [10] was 52.2%. It also gave a viability, T/C (second compound 0.316 µM, first compound 0.000316 µM) of 94.9%, a viability, T/C (second compound 0.316 µM, first compound 0.001 µM) of 113% and a viability, T/C [13] of 96.8%. It also gave a viability, T/C [14] of 97.3%, a viability, T/C [15] of 78.7% and a viability, T/C [16] of 47.8%. The viability, T/C (second compound 1 µM, first compound 0.000316 µM) was 101%, the viability, T/C (second compound 1 µM, first compound 0.001 µM) was 98.9% and the viability, T/C [19] was 87.9%. The viability, T/C [20] was 104%, the viability, T/C [21] was 75% and the viability, T/C [22] was 59.2%. The viability, T/C (second compound 3.16 µM, first compound 0.000316 µM) was 89.6%, the viability, T/C (second compound 3.16 µM, first compound 0.001 µM) was 91.5% and the viability, T/C [25] was 92.8%. The viability, T/C [26] was 97.8%, the viability, T/C [27] was 78% and the viability, T/C [28] was 63.9%. For the same compound, the viability, T/C (second compound 10 µM, first compound 0.000316 µM) was 93.4%, the viability, T/C (second compound 10 µM, first compound 0.001 µM) was 95.2% and the viability, T/C [31] was 94.5%. For the same compound, the viability, T/C [32] was 98.8%, the viability, T/C [33] was 81.8% and the viability, T/C [34] was 54.5%.
